Molecular target: Plasma kallikrein (Homo sapiens, UniProt P03952)
Experiment: Inhibitory Activity Assay: Example compounds were evaluated for inhibition of the human activated kallikrein enzyme in two formats of an assay employing a fluorogenic peptide substrate. In one assay format, the concentrations of reagents were as follows: 20 mM Tris pH 7.5, 1 mM EDTA, 150 mM sodium chloride, 0.1% PEG-400, 0.1% Triton X-100, 500 pM activated kallikrein enzyme, 300 uM Pro-Phe-Arg-7-amido-4-methylcoumarin substrate. Prior to reaction initiation with substrate, enzyme and inhibitors were preincubated for 30 min at RT. After initiation with substrate, reactions were incubated for 10 min at RT and fluorescence emission at 460 nm from 380 nm excitation measured with a microplate reader. In another assay format, the concentrations of reagents were as follows: 20 mM Tris pH 7.5, 1 mM EDTA, 150 mM sodium chloride, 0.1% PEG-400, 0.1% Triton X-100, 5 pM activated kallikrein enzyme, 300 uM Pro-Phe-Arg-7-amido-4-methylcoumarin substrate. Prior to reaction initiation with substrate, enzyme and inhibitors were preincubated for 30 min at RT. After initiation with substrate, reactions were incubated for 18 h at RT and fluorescence emission at 460 nm from 380 nm excitation measured with a microplate reader.

Plasma kallikrein, sequence (P03952 20-390 limits assumed): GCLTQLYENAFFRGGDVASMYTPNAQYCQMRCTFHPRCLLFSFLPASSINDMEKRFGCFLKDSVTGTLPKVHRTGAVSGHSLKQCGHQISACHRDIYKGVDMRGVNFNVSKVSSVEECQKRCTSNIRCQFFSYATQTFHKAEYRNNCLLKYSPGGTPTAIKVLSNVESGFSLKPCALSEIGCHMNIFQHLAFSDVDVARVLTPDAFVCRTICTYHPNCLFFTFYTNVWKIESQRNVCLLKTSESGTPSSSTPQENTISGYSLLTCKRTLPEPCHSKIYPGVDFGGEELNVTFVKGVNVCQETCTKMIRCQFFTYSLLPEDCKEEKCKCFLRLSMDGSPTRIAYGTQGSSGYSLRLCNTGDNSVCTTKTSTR
Plasma kallikrein, sequence (P03952 391-638 limits assumed): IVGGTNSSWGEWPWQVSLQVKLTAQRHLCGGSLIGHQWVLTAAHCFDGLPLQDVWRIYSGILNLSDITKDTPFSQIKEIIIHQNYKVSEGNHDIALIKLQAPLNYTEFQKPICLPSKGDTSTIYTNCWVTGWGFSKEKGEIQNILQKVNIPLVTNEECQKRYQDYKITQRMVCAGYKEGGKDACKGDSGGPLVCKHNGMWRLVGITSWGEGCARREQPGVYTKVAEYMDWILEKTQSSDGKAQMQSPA

EC50: < 1 nM
SMILES: O=C(NCc1ncn2ccc(Cl)cc12)c1cnn(Cc2cc3cc(C4CC4)ccn3n2)c1
